# Measurements reported in patent US12280051B2, “Pharmaceutical composition for topical wound treatment” (CONSEJO NACIONAL DE INVESTIGACIONES CIENTIFICAS Y TECNICAS, priority 2021, dated 2025).
# B1: DNAse: rh-Dornase alfa (recombinant human DNase, Roche) diluted in mixing solvent; C2 0.97 μg/mL, C4 3.90 μg/mL (protein, UniProt P24855 23-282, looked up)
# Deoxyribonuclease-1: LKIAAFNIQTFGETKMSNATLVSYIVQILSRYDIALVQEVRDSHLTAVGKLLDNLNQDAPDTYHYVVSEPLGRNSYKERYLFVYRPDQVSAVDSYYYDDGCEPCGNDTFNREPAIVRFFSRFTEVREFAIVPLHAAPGDAVAEIDALYDVYLDVQEKWGLEDVMLMGDFNAGCSYVRPSQWSSIRLWTSPTFQWLIPDSADTTATPTHCAYDRIVVAGMLLRGAVVPDSALPFNFQAAYGLSDQLAQAISDHYPVEVMLK
# Experiments:
# [1] = Chelating capacity: remaining Calcium (unchelated); format: physicochemical; conditions: pH 7.0
# Description: The following solutions were prepared in Mixing solvent (MS) at pH 7.0. All solutions were supplemented with ZnCl2 (1 ppm), CaCl2 (100 ppm) and MgCl2 (25 ppm). The concentrations of Zn, Ca and Mg used here, were close to those typically found in exudates from chronic wounds. The pH chosen for the reaction (7.0) would result from the combination of compositions of present invention (pH 5.5) and the exudate from a chronic wound (pH 8.5). Prepared solutions were: EDTA (0.25, 0.50 and 0.75 mg/mL) as indicated in example 1; M0, M13, […] were elaborated according to examples 18 to 21. and LAPS deproteinized: Over a LAPS 24 h sample obtained according to example 1, a deproteinization process was performed using reagents and indications of the commercial kit employed. Measurement of remaining Calcium (unchelated) in the prepared solutions: A commercial Calcium measurement kit (Wiener Lab) was used. This is a colorimetric method based on the reaction of calcium with o-cresolphthalein complexone (o-CPC) at alkaline pH, giving a photocolorimetrically measurable magenta complex at 570 nm.
# [2] = Chelating capacity: remaining Zinc (unchelated); format: physicochemical; conditions: pH 7.0; EDTA at all concentrations tested; combination of Zinc, Calcium and Magnesium
# Description: The following solutions were prepared in Mixing solvent (MS) at pH 7.0. All solutions were supplemented with ZnCl2 (1 ppm), CaCl2 (100 ppm) and MgCl2 (25 ppm). The concentrations of Zn, Ca and Mg used here, were close to those typically found in exudates from chronic wounds. The pH chosen for the reaction (7.0) would result from the combination of compositions of present invention (pH 5.5) and the exudate from a chronic wound (pH 8.5). Prepared solutions were: EDTA (0.25, 0.50 and 0.75 mg/mL) as indicated in example 1; M0, M13, […] were elaborated according to examples 18 to 21. and LAPS deproteinized: Over a LAPS 24 h sample obtained according to example 1, a deproteinization process was performed using reagents and indications of the commercial kit employed. Measurement of remaining Zinc (unchelated) in the prepared solutions: A commercial Zinc measurement kit (Randox Lab) was used. This is a colorimetric method based on the reaction of Zinc with Dimethylglyoxime and Salicylaldoxin at alkaline pH, giving a colored complex photocolorimetrically measurable at 560 nm. For the determination of Zinc in LAPS, a previous deproteinization step was necessary. Therefore, equal parts of LAPS and deproteinizing reagent (Trichloroacetic Acid 370 mmol/L) were mixed in conical tubes, homogenized and centrifuged for 10 min at 10,000×g. The supernatant was used for the test.
# [3] = tested on: chicken chorioallantoic membrane; assay: Chicken Chorioallantoic Membrane Assay (CAM), angiogenesis; format: in vivo; conditions: 300 μl onto the chorioallantoic membrane; 24 and 48 hours; ethosuximide solutions 0.5 and 3.0 mg/mL; FIG. 18
# Text: Angiogenesis is a complex biological process involving the generation of new blood vessels from the pre-existing vasculature. The process involves the cooperation of several different cell types, and in particular involves proliferation, survival, and tissue invasion by activated endothelial cells. Most investigations of angiogenesis include at least one in vivo study. The Chicken Chorioallantoic Membrane Assay (CAM) is suitable for a variety of applications. In this assay, the angiogenic properties of different concentrations of ethosuximide and lactic acid and the mixtures were tested.
# Eggs commercial lines with a weight between 30-90 g were used. By using an ovoscope the viability of the chorioallantoic membrane was determined to select only fertilized and viable eggs. […]
# Then, 300 μl of the following solutions were slowly placed onto the chorioallantoic membrane: Ethosuximide 3.0 mg/mL; Ethosuximide 0.5 mg/mL; M0; M13; M15; LAPS; Negative control (PBS). Each solution was evaluated by triplicade. […]
# Angiogenesis tests: Digital images analysis was made by using the software Image J plus. The length of vascularization (cm) per CAM area (cm^2) was evaluated before solution addition (basal) and after 24 and 48 hours. Then, the percentage of increase of vascularization was calculated.
# VEGF [4] = assay: VEGF expression in macrophages J774 (real-time PCR); format: cell-based, Murine; conditions: Macrophages J774 + LPS 25 ng/mL; Ethosuximide 0.5 mg/mL; 24 hours; FIG. 19
# Description: (§1) Cell lines were grown and maintained following the protocols of the American Type Culture Collection (ATCC, Rockville, MD, USA), using Minimum Essential Medium (MEM), Fetal Bovine Serum (FBS), L-glutamine.
# (§2) To evaluate the expression of the VEGF genes, the following cell lines were used: • a. Murine macrophage cell line J774 (ATCC), stimulated with 25 ng/mL of lipopolysaccharides (LPS) from E. coli (L-8274, Sigma). • b. Adult human skin keratinocytes cell line HaCaT(ATCC).
# (§3) Cells were plated for 24 hours with Ethosuximide at different concentrations to evaluate their effect on gene expression.
# (§4) Monolayers of the J774 Macrophage cell lines and HaCaT Keratinocytes were used, until confluent cells were obtained, which were stimulated with Ethosuximide at 0.5 and 3.0 mg/mL as indicated in example 1, in 12-well plates, at a final volume of 300 μL/well. For the J774 macrophage line, all treatments were supplemented with LPS (25 ng/mL), using MEM 1× with LPS (25 ng/mL) as control (Control+LPS). HaCaT keratinocytes were treated with the concentrations of ethosuximide in MEM with 10% FBS, using 1× MEM as a control. […]
# (§5) Levels of VEGF and GAPDH mRNA were measured in triplicate for each sample using the StepOnePlus Real-Time PCR Systems (Applied Biosystems) and the Power Up SYBR Green Master Mix (ROCHE) kit. […] Group means were determined and normalized to the MEM group for each experiment.
# VEGF [5] = assay: VEGF expression in keratinocytes HaCaT (real-time PCR); format: cell-based, human; conditions: Ethosuximide 3.0 mg/mL, 24 hours, FIG. 19
# Description: as §1, §2, §3, §4, §5
# [6] = tested on: Intercellular adhesion molecule-1 (ICAM-1); conditions: cited from earlier work
# [7] = tested on: Staphylococcus aureus MTCC 96; conditions: cited from earlier work
# [8] = tested on: Pseudomonas aeruginosa. MTCC741; conditions: cited from earlier work
# highly polymerized DNA = assay: DNAse activity halos in DNAse agar and conservation in time; format: biochemical; conditions: DNAse 0.97 μg/mL alone (C2); DNAse agar, 24 hours at 32° C.
# Text: DNAse agar is a culture medium that contains highly polymerized DNA and agar as solidifying agents. The DNA is the substratum of the deoxyribonuclease enzyme (DNAse) which hydrolyzes it. This medium allows to detect DNAse activity in different samples and microorganisms. The presence of the enzyme could be visualized adding hydrochloric acid 1N. The hydrolyzed deoxyribonucleic acid presents transparency while the polymerized deoxyribonucleic acid precipitates generating resulting in a opacity on the culture media
# Plates preparation: DNAse agar plates were prepared according to manufacturer recommendations (Britania, CABA, Argentina). A volume of 20 mL of the molten media was employed reaching an agar height of 2 mm in the plates. Wells of 5 mm o diameter were made over the agar using a sterile punch. Therefore, the sown volume in each well was π×r^2×h=π×(2.5 mm)^2×2 mm=40 mm=40 μL. […]
# Analyzed samples: LAPS, M0, M13, M15, M16 (All gelled with hydroxyethyl cellulose) stored at 25° C. and 4° C. DNAse activity was measured once a week for 6 months. […]
# Then, the plates were rested and were observed up to no more than 5 minutes after adding the HCl. DNase activity was measured analyzing the transparent evanescence around the planting zone recording in millimeters the halos diameter.
molecule,measurement,setting,value
"O=C(O)CN(CCN(CC(=O)O)CC(=O)O)CC(=O)O [EDTA, ethylenediaminetetraacetic acid]",Calcium chelation percentage,[1]; EDTA 0.25 mg/mL,not able to chelate all the available calcium
same,Calcium chelation percentage,"[1]; EDTA at 0.50, 0.75 and 1.00 mg/mL, combination of zinc, calcium and magnesium",completely
same,Zinc chelation percentage,[2],completely chelate
"CCC1(C)CC(=O)NC1=O (stereo not shown) [Ethosuximide, ethosuximide]",percentage of increase of vascularization (angiogenic effect),[3],showed angiogenic properties although it was better at 0.5 mg/mL than 3.0 mg/mL
same,VEGF expression level normalized to GAPDH,VEGF [4],induced
same,VEGF expression level normalized to GAPDH,VEGF [5],induced
"CC(=O)N[C@@H](CS)C(=O)O [NAC, N-acetyl cysteine]",ICAM-1 expression,[6],concentration dependent inhibition
"XYLENTRA®: synthetically engineered antimicrobial peptide of U.S. Pat. No. 10,285,938 B2",antibacterial activity,[7],significant antibacterial activity
same,antibacterial activity,[8],significant antibacterial activity
B1,halos of DNAse activity,highly polymerized DNA,8-10 mm
